Assays:
gastric acid secretion [1] = assay: Inhibitory effect on gastric acid secretion, perfused stomach preparation of anesthetized rat (histamine stimulated); format: in vivo, Wistar strain rats; settings: intravenous; for ED100: Rattus norvegicus, cumulative, histamine 30 μg/kg/min, read-out: Dose for complete inhibition; for Duration: time from complete inhibition until pH of perfusate became 4
Description: (i) Perfused stomach preparation of anesthetized rat [according to M. N. Ghosh and H. O. Schild: Brit. J. Pharmacol. 13, 54 (1958)]
Wistar strain rats (male, 200 to 250 g) starved for 18 hours were anesthetized with urethane and then subjected to laparotomy, after which the forestomach region of the stomach of each rat was incised. The whole interior of the stomach was sufficiently washed with physiological saline, and the cut edges were sutured. A silicon tube was inserted into the stomach to a length of about 5 mm from the duodenum side and fixed. Subsequently, the stomach was perfused with physiological saline adjusted to a pH of about 10 with an aqueous sodium hydroxide solution at a constant rate (1 ml/min) through an oral sonde, and the change in pH of the perfusate which had flowed out through the silicone tube was continuously recorded. During the perfusion, histamine (30 μg/kg/min) was continuously injected, as an agent for stimulating gastric acid secretion, through the femoral vein at a rate of 0.3 ml/min. Each drug was intravenously administered when the acid secretion became almost constant (pH 3.3±0.2), and cumulatively administered when the inhibition of acid secretion at each dose reached a plateau.
The number of experiments was three for each dose.

gastric acid secretion [2] = assay: Inhibitory effect on gastric acid secretion, pylorus ligation method (histamine); format: in vivo, Wistar strain rats; settings: Rattus norvegicus, oral, histamine 25 mg/kg s.c., read-out: Inhibition percentage (gastric acid secretion)
Description: Five to six Wistar strain rats (male, 190 to 230 g) per group were starved for 35 hours, after which each drug was orally administered, and after 2 hours, the pylorus of each rat was ligated under ether anesthesia. […] After 3 hours, each rat was killed, after which the cardiac portion was ligated, and the stomach was removed. After 1 ml of distilled water was injected into the stomach, the gastric juice was collected by centrifugation and its volume was measured. The acidity of the gastric juice was measured by titrating 1 ml of the gastric juice with a 0.1N aqueous sodium hydroxide solution, taking pH 7.0 as the end-point. Physiological saline was administered to a control group.
The inhibition percentage of gastric acid secretion was determined from the following equation: [formula]

[3] = system: isolated guinea pig atrium; assay: Effect on isolated guinea pig atrium (histamine-induced heart rate); set-up: species or system Hartley guinea pig; settings: for Potency ratio: Cimetidine = 1; for IC50: right atrium, 5×10^-6 M histamine, 30° C., read-out: ID50 (the source's name)
Description: Hartley guinea pig (male, 300 to 400 g) was killed by blood-letting, immediately after which the heart was isolated, and the right atrium was separated in a Krebs-Henseleit solution and used as a preparation. […] The preparation was trained in a bath fluid, and after the heart rate became constant, 5×10^-6 M of histamine was administered. After the heart rate became constant, each drug was administered cumulatively.
The inhibition percentage was determined from the following equation: [formula] HRmin : heart rate before the administration of histamine HRmax : heart rate after the administration of histamine
HRx : heart rate at the time of the administration of each drug.
The number of experiments were five for each dose.

Indomethacin ulcer = assay: Anti-ulcer activity: Indomethacin ulcer; format: in vivo, Wistar strain rats; settings: for Potency ratio: Cimetidine = 1; for ED50: 5 h, Indomethacin ulcer, read-out: ID50 (the source's name)
Description: Six Wistar strain rats (male, 200 to 250 g) per group were starved for 24 hours, after which each drug was orally administered, and after 30 minutes, Indomethacin was injected subcutaneously at a dose of 30 mg/kg. After 5 hours, each rat was killed, and the stomach was removed and fixed with 3% formalin, after which the lengths of ulcers formed in the stomach was measured under the binocular stereoscopic microscope (10×), and the sum total of the lengths was taken as the ulcer index. To a control group was administered 0.5% Tween 80 physiological saline. The inhibition percentage was determined from the following equation: [formula]

[4] = system: Stress ulcer induced by water-immersion; assay: Anti-ulcer activity: Stress ulcer induced by water-immersion; format: in vivo, Wistar rats; settings: for Inhibition percentage / ED50: oral; for Potency ratio: Cimetidine = 1; for ED50: Rattus norvegicus, 15 h, water-immersion stress ulcer, read-out: ID50 (the source's name)
Description: (iii) Stress ulcer induced by water-immersion
An experiment was carried out according to the method of Takagi et al. [K. Takagi et al., Jap.
Six Wistar rats (male, 230 to 280 g) per group were starved for 24 hours, after which each drug was orally administered. After 30 minutes, the rats were placed in stress cage, immersed in water at 23° C. to the depth of xiphoid, and allowed to stand therein for 15 hours. Thereafter, the stomach of each rat was removed and then fixed with 3% formalin, after which the areas of the ulcers formed were measured under the binocular stereoscopic microscope (10×), and the sum total of the areas was taken as the ulcer index. To a control group was administered 0.5% Tween 80 physiological saline.
The inhibition percentage was determined from the following equation: [formula]

[5] = system: Mepirizole-induced duodenal ulcer; assay: Anti-ulcer activity: Mepirizole-induced duodenal ulcer; format: in vivo, Wistar strain rats; settings: for Inhibition percentage / ED50: oral; for Potency ratio: Cimetidine = 1; for ED50: Rattus norvegicus, 18 h, mepirizole-induced duodenal ulcer, read-out: ID50 (the source's name)
Description: (ii) Mepirizole-induced duodenal ulcer
A test was carried out according to the method of Okabe et al. [S. Okabe et al., Gastrcenterology, 80, 1241 (1981)].
Six Wistar strain rats (male, 200 to 250 g) per group were starved for 24 hours, after which each drug was orally administered, and after 30 minutes, mepirizole was injected subcutaneously at a dose of 200 mg/kg. After 18 hours, the stomach and duodenum were removed and fixed with 3% formalin, after which the areas and depths of the ulcers formed in the duodenum were measured under the binocular stereoscopic microscope (10×). The scores were given in 7 grades depending on the areas and depths of the ulcers, and the sum total of the scores was taken as the ulcer index. The scores were given as follows:
That is to say, the score is 0 at an ulcer area of 0 to 0.2 mm^2, 1 at 0.2 to 1.0 mm^2, 2 at 1 to 3 mm^2, 3 at 3 to 6 mm^2, 4 at 6 to 10 mm^2,5 at 10 mm^2 or more, the ulcer in the condition immediately before perforation is scored as 6, and the ulcer which had caused perforation is scored as 7.
(§1) To a control group was administered 0.5% Tween 80 physiological saline. The inhibition percentage was determined from the following equation: [formula]

Reserpine ulcer = assay: Anti-ulcer activity: Reserpine ulcer; format: in vivo, Wistar strain rats; settings: oral
Description: An experiment was carried out according to the method of Adami et al. [E. Adami et al., Arch. int.
Ten Wistar strain rats (male, 180 to 200 g) per group were starved for 30 hours, after which each drug was orally administered, and after 1 hour, reserpine was injected subcutaneously at a dose of 10 mg/kg. After 18 hours, the stomach was removed and fixed with 3% formalin, and thereafter the lengths of the ulcers formed in the stomach were measured with callipers. The measured values were converted to the scores described below, and the sum total of the scores was taken as the ulcer index.
That is to say, 1 to 5 pin point ulcers are scored as 1, 6 or more pin point ulcers are scored as 2, ulcers of 1 mm or less in length are scored as 1, ulcers of 1 to 2 mm in length are scored as 2, ulcers of 2 to 4 mm in length are scored as 4, and ulcers of 4 mm or more in length are scored as 8.
as §1

[6] = Rattus norvegicus, oral, read-out: Inhibition percentage

SMILES	ED100 (gastric acid secretion [1])	Duration (gastric acid secretion [1])	inhibition in vivo at 3 mg/kg (gastric acid secretion [2])	Potency ratio [3]	IC50 [3]	inhibition in vivo at 1 mg/kg (gastric acid secretion [2])	Potency ratio (Indomethacin ulcer)	ED50 (Indomethacin ulcer; Rattus norvegicus, oral)	inhibition in vivo at 1 mg/kg (Indomethacin ulcer; [6])	inhibition in vivo at 3 mg/kg (Indomethacin ulcer; [6])	inhibition in vivo at 10 mg/kg (Indomethacin ulcer; [6])	Inhibition percentage ([4]; 1 mg/kg)	Inhibition percentage ([4]; 3 mg/kg)	Inhibition percentage ([4]; 10 mg/kg)	Potency ratio [4]	ED50 [4]	Inhibition percentage ([5]; 1 mg/kg)	Inhibition percentage ([5]; 3 mg/kg)	Potency ratio [5]	ED50 [5]	also measured
CN(C)Cc1ccc(CSCCNC(=C[N+](=O)[O-])NCC(O)c2ccccc2F)o1 (stereo not drawn) [compound 4, N-{2-[[5-(dimethylamino)methyl-2-furyl]methylthio]ethyl}-N'-[2-(2-fluorophenyl)-2-hydroxyethyl]-2-nitro-1,1-ethenediamine]	0.04 mg/kg	220 min	75%	14.9	225 nM	–	–	–	–	–	–	–	–	–	–	–	–	–	–	–	–
O=[N+]([O-])C=C(NCCCOc1cccc(CN2CCCCC2)c1)NCC(O)c1ccc2c(c1)OCO2 (stereo not drawn) [compound 17, N-[2-hydroxy-2-(3,4-methylenedioxyphenyl)ethyl]-2-nitro-N'-[3-(3-piperidinomethylphenoxy)propyl]-1,1-ethenediamine]	0.15 mg/kg	> 280 min	70%	15.4	218 nM	–	–	–	–	–	–	–	–	–	–	–	–	–	–	–	–
CCc1ccc(C(O)CNC(=C[N+](=O)[O-])NCCSCc2cc(C)c(CN(C)C)s2)cc1 (stereo not drawn) [compound 42, N-{2-[[5-(dimethylamino)methyl-4-methyl-2-thienyl]methylthio]ethyl}-N'-[2-(4-ethylphenyl)-2-hydroxyethyl]-2-nitro-1,1-ethenediamine]	–	–	–	14.1	237 nM	57%	–	–	–	–	–	–	–	–	–	–	–	–	–	–	–
COc1cccc(C(O)CNC(=C[N+](=O)[O-])NCCSCc2cc(C)c(CN(C)C)s2)c1 (stereo not drawn) [compound 9, N-{2-[[5-(dimethylamino)methyl-4-methyl-2-thienyl]methylthio]ethyl}-N'-[2-hydroxy-2-(3-methoxyphenyl)ethyl]-2-nitro-1,1-ethenediamine]	0.2 mg/kg	190 min	–	13.7	245 nM	75%	39.3	0.7 mg/kg	70%	85%	97%	33%	66%	86%	9.1	1.7 mg/kg	-8%	33%	37.7	4.3 mg/kg	inhibition in vivo at 0.3 mg/kg (Indomethacin ulcer; [6]): 6%; Inhibition percentage ([5]; 10 mg/kg): 93%; Inhibition percentage (Reserpine ulcer; 1 mg/kg): 29%; Inhibition percentage (Reserpine ulcer; 3 mg/kg): 69%; ED50 (Reserpine ulcer; Rattus norvegicus, 18 h, reserpine ulcer, read-out: ID50 (the source's name)): 1.8 mg/kg
CNC(=C[N+](=O)[O-])NCCSCc1ccc(CN(C)C)o1 [Ranitidine, reference compound]	0.5 mg/kg	92 min	17%	–	–	–	1.8	15.5 mg/kg	–	–	18%	–	7%	80%	2.4	6.4 mg/kg	–	–	5.1	32 mg/kg	inhibition in vivo at 30 mg/kg (Indomethacin ulcer; Rattus norvegicus, 30 mg/kg, oral, read-out: Inhibition percentage): 98%; inhibition in vivo at 10 mg/kg (gastric acid secretion [2]; 10 mg/kg): 56%; inhibition in vivo at 30 mg/kg (gastric acid secretion [2]; 30 mg/kg): 91%; Inhibition percentage ([5]; 30 mg/kg): 49%; Inhibition percentage ([5]; 100 mg/kg): 78%; Inhibition percentage (Reserpine ulcer; 30 mg/kg): 33%; Inhibition percentage (Reserpine ulcer; 100 mg/kg): 40%
CN(C)Cc1ccc(CSCCNC(=C[N+](=O)[O-])NCC(O)c2ccc(O)cc2)o1 (stereo not drawn) [compound 3, N-{2-[[5-(dimethylamino)methyl-2-furyl]methylthio]ethyl}-N'-[2-hydroxy-2-(4-hydroxyphenyl)ethyl]-2-nitro-1,1-ethenediamine]	0.1 mg/kg	155 min	–	14.7	228 nM	–	8.1	3.4 mg/kg	20%	51%	71%	12%	73%	83%	9.0	1.72 mg/kg	12%	49%	55.9	2.9 mg/kg	Inhibition percentage ([5]; 10 mg/kg): 97%
O=[N+]([O-])C=C(NCCCOc1cccc(CN2CCCCC2)c1)NCC(O)c1ccc(F)cc1 (stereo not drawn) [compound 15, N-[2-(4-fluorophenyl)-2-hydroxyethyl]-2-nitro-N'-[3-(3-piperidinomethylphenoxy)propyl]-1,1-ethenediamine]	0.06 mg/kg	180 min	–	15.4	218 nM	77%	68.8	0.4 mg/kg	88%	92%	98%	42%	69%	83%	11.5	1.35 mg/kg	2%	29%	36.0	4.5 mg/kg	inhibition in vivo at 0.3 mg/kg (Indomethacin ulcer; [6]): 37%; Inhibition percentage ([5]; 10 mg/kg): 93%

Source: patent publication US4923882A, “Novel amine derivatives, salts thereof and an anti-ulcer agent containing the same” (Toyama Chemical Co., Ltd., priority 1982, dated 1990)
